Our source for the IC50 values is patent US20230293518A1 (Edgewise Therapeutics, Inc., priority 2020, published 2023).

The first experiment concerns the target skeletal myofibrils (myosin ATPase). Put plainly: Skeletal Myofibril ATPase Assay. It counts as biochemical. The settings on record: Table 4A. Put shortly: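 IC50 came from four-parameter logistic fits, bottom constrained ≥0, of (Max−Min) A340 values normalised to 1% DMSO controls. Readings were taken kinetically over 45 min at 1.5-2 min intervals, with ADP from myofibril myosin ATPase coupled through PK-LDH to NADH oxidation. Buffer was pCa (PIPES/CaCl2/EGTA), pH 7.0.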
Turning to `O=C(Cn1nc(-c2ccc(OC(F)F)nc2)ccc1=O)NCc1cccc(Cl)c1` [Compound I-76, N-(3-chlorobenzyl)-2-(3-(6-(difluoromethoxy)pyridin-3-yl)-6-oxopyridazin-1(6H)-yl)acetamide], the IC50 was 10 to 100 µM.

The molecule `CCNC(=O)Cn1nc(-c2cnc(OCCOC(F)(F)F)nc2)ccc1=O` [Compound I-49, N-ethyl-2-(6-oxo-3-(2-(2-(trifluoromethoxy)ethoxy)pyrimidin-5-yl)pyridazin-1(6H)-yl)acetamide] came in with a half-maximal inhibitory concentration (IC50) of 10 to 100 µM.

On to `CC(C)COc1ncc(-c2ccc(=O)n(CC(=O)NC3CCC3)n2)cn1` [Compound I-79, N-cyclobutyl-2-[3-[2-(2-methylpropoxy)pyrimidin-5-yl]-6-oxopyridazin-1-yl]acetamide], for which the IC50 was above 100 µM.

Regarding `CCNC(=O)Cn1nc(-c2ccc(OCC3COC3)nc2)ccc1=O` [Compound I-22, N-ethyl-2-(3-(6-(oxetan-3-ylmethoxy)pyridin-3-yl)-6-oxopyridazin-1(6H)-yl)acetamide], the IC50 lay within 10 to 100 µM.

Regarding `CCNC(=O)Cn1nc(-c2ccc(OC3COC3)nc2)ccc1=O` [Compound I-25, N-ethyl-2-(3-(6-(oxetan-3-yloxy)pyridin-3-yl)-6-oxopyridazin-1(6H)-yl)acetamide], the IC50 is above 100 µM.

Molecule `CCNC(=O)Cn1nc(-c2ccc(OCCC(F)(F)F)nc2)ccc1=O` [Compound I-10, N-ethyl-2-[6-oxo-3-[6-(3,3,3-trifluoropropoxy)pyridin-3-yl]-1,6-dihydropyridazin-1-yl]acetamide] had an IC50 of 10 to 100 µM.

`CCNC(=O)Cn1nc(-c2ccc(NC34CCC(CC3)CC4)nc2)ccc1=O` [Compound I-41, 2-(3-(6-(bicyclo[2.2.2]octan-1-ylamino)pyridin-3-yl)-6-oxopyridazin-1(6H)-yl)-N-ethylacetamide] returned an IC50 of 10 to 100 µM.

`CCNC(=O)Cn1nc(-c2ccc(N3CC(COC(F)(F)F)C3)nc2)ccc1=O` [Compound I-40, N-ethyl-2-(6-oxo-3-(6-(3-((trifluoromethoxy)methyl)azetidin-1-yl)pyridin-3-yl)pyridazin-1(6H)-yl)acetamide] had an IC50 of 10 to 100 µM.

Molecule `CCNC(=O)Cn1nc(-c2ccc(N3CC(F)(F)C3)nc2)ccc1=O` [Compound I-6, 2-(3-(6-(3,3-difluoroazetidin-1-yl)pyridin-3-yl)-6-oxopyridazin-1(6H)-yl)-N-ethylacetamide] displayed a half-inhibitory concentration (IC50) of 10 to 100 µM.

Consider `CCNC(=O)Cn1nc(-c2ccc(NC(C)(C)C)nc2)ccc1=O` [Compound I-53, 2-(3-(6-(tert-butylamino)pyridin-3-yl)-6-oxopyridazin-1(6H)-yl)-N-ethylacetamide], for which the concentration for half-maximal inhibition (IC50) is below 10 µM.

As to `CCNC(=O)Cn1nc(-c2ccc(OCCN(C)C)nc2)ccc1=O` [Compound I-26, 2-(3-(6-(2-(dimethylamino)ethoxy)pyridin-3-yl)-6-oxopyridazin-1(6H)-yl)-N-ethylacetamide], the IC50 is above 100 µM.

The experiment is the same for the next values; noted with them: Table 4B.
`CCCNC(=O)Cn1nc(-c2ccc(OC(F)F)cc2)ccc1=O` [II-12, 2-(3-(4-(difluoromethoxy)phenyl)-6-oxopyridazin-1(6H)-yl)-N-propylacetamide] displayed a concentration for half-maximal inhibition (IC50) of 10 to 100 µM.

As to `O=C(Cn1nc(-c2ccc(OCC(F)(F)F)cc2)ccc1=O)NCc1ccc(CO)cc1` [II-24, N-(4-(hydroxymethyl)benzyl)-2-(6-oxo-3-(4-(2,2,2-trifluoroethoxy)phenyl)pyridazin-1(6H)-yl)acetamide], the concentration for half-maximal inhibition (IC50) is above 100 µM.

The molecule `CCNC(=O)Cn1nc(-c2ccc(OCC(F)(F)F)cc2)ccc1=O` [II-6, N-ethyl-2-(6-oxo-3-(4-(2,2,2-trifluoroethoxy)phenyl)pyridazin-1(6H)-yl)acetamide] gave a concentration for half-maximal inhibition (IC50) below 10 µM.

Molecule `O=C(Cn1nc(-c2ccc(OCC(F)(F)F)cc2)ccc1=O)N1CCC1c1ccccc1` (stereo not shown) [II-23, 2-(2-oxo-2-(2-phenylazetidin-1-yl)ethyl)-6-(4-(2,2,2-trifluoroethoxy)phenyl)pyridazin-3(2H)-one] registered a concentration for half-maximal inhibition (IC50) below 10 µM.

The experiment is the same for the next values; noted with them: Table 4C.
In the case of `COc1ccc(-c2ccc(=O)n(CC(=O)NC3CC3)n2)c(F)c1` [IIIb-58, N-cyclopropyl-2-(3-(2-fluoro-4-methoxyphenyl)-6-oxopyridazin-1(6H)-yl)acetamide], the concentration for half-maximal inhibition (IC50) was above 100 µM.

For the molecule `COc1ccc(-c2ccc(=O)n(CC(=O)NCc3ccccc3F)n2)cc1` [IIIb-38, N-(2-fluorobenzyl)-2-(3-(4-methoxyphenyl)-6-oxopyridazin-1(6H)-yl)acetamide], the IC50 is above 100 µM.

`CCNC(=O)Cn1nc(-c2ccc(OCC3(F)COC3)cc2)ccc1=O` [IIIa-27, N-ethyl-2-(3-(4-((3-fluorooxetan-3-yl)methoxy)phenyl)-6-oxopyridazin-1(6H)-yl)acetamide] displayed a concentration for half-maximal inhibition (IC50) of 10 to 100 µM.

`COc1ccc(-c2ccc(=O)n(CC(=O)NC(C)C)n2)cc1` [IIIb-18, N-isopropyl-2-(3-(4-methoxyphenyl)-6-oxopyridazin-1(6H)-yl)acetamide] gave an IC50 of 10 to 100 µM.

`Cc1ccc(-c2ccc(=O)n(CC(=O)NC3CCCC3)n2)cc1` [IIIc-5, N-cyclopentyl-2-(6-oxo-3-(p-tolyl)pyridazin-1(6H)-yl)acetamide] gave a concentration for half-maximal inhibition (IC50) of 10 to 100 µM.

`O=C(Cn1nc(-c2ccc3c(c2)OCCCO3)ccc1=O)NC1CCCCCC1` [IIIb-24, N-cycloheptyl-2-(3-(3,4-dihydro-2H-benzo[b][1,4]dioxepin-7-yl)-6-oxopyridazin-1(6H)-yl)acetamide] displayed an IC50 of 10 to 100 µM.

For `COc1ccc(-c2ccc(=O)n(CC(=O)Nc3ccc(Cl)cc3Cl)n2)c(F)c1` [IIIb-35, N-(2,4-dichlorophenyl)-2-(3-(2-fluoro-4-methoxyphenyl)-6-oxopyridazin-1(6H)-yl)acetamide], the half-maximal inhibitory concentration (IC50) was 10 to 100 µM.

`Cc1ccc(-c2ccc(=O)n(CC(=O)NC3CCCCC3)n2)cc1` [IIIc-6, N-cyclohexyl-2-(6-oxo-3-(p-tolyl)pyridazin-1(6H)-yl)acetamide] displayed a concentration for half-maximal inhibition (IC50) of 10 to 100 µM.

As to `CC(C)NC(=O)Cn1nc(-c2ccc(Br)cc2)ccc1=O` [IIIc-40, 2-(3-(4-bromophenyl)-6-oxopyridazin-1(6H)-yl)-N-isopropylacetamide], the IC50 lay within 10 to 100 µM.

The molecule `O=C(Cn1nc(-c2ccc(Cl)cc2)ccc1=O)Nc1ccccc1Cl` [IIIc-28, N-(2-chlorophenyl)-2-(3-(4-chlorophenyl)-6-oxopyridazin-1(6H)-yl)acetamide] returned a half-maximal inhibitory concentration (IC50) below 10 µM.

Molecule `CC(C)NC(=O)Cn1nc(-c2ccccc2)ccc1=O` [IIIc-63, N-isopropyl-2-(6-oxo-3-phenylpyridazin-1(6H)-yl)acetamide] came in with a concentration for half-maximal inhibition (IC50) above 100 µM.

Molecule `CCOc1ccc(-c2ccc(=O)n(CC(=O)NC(C)C)n2)cc1` [IIIa-6, 2-(3-(4-ethoxyphenyl)-6-oxopyridazin-1(6H)-yl)-N-isopropylacetamide] displayed an IC50 below 10 µM.

For `COc1ccc(-c2ccc(=O)n(CC(=O)NCc3ccc(Cl)cc3)n2)cc1` [IIIa-17, N-(4-chlorobenzyl)-2-(3-(4-methoxyphenyl)-6-oxopyridazin-1(6H)-yl)acetamide], the IC50 is below 10 µM.

`COc1ccc(CNC(=O)Cn2nc(-c3ccc(OC)cc3)ccc2=O)cc1` [IIIb-34, N-(4-methoxybenzyl)-2-(3-(4-methoxyphenyl)-6-oxopyridazin-1(6H)-yl)acetamide] yielded an IC50 of 10 to 100 µM.

As to `COc1ccc(-c2ccc(=O)n(CC(=O)NCCC(C)C)n2)c(F)c1` [IIIb-57, 2-(3-(2-fluoro-4-methoxyphenyl)-6-oxopyridazin-1(6H)-yl)-N-isopentylacetamide], the half-inhibitory concentration (IC50) is above 100 µM.

Consider `COc1ccc(-c2ccc(=O)n(CC(=O)NCc3ccccc3Cl)n2)cc1F` [IIIa-24, N-(2-chlorobenzyl)-2-(3-(3-fluoro-4-methoxyphenyl)-6-oxopyridazin-1(6H)-yl)acetamide], for which the IC50 was in the range of 10 to 100 µM.

Molecule `COc1ccc(-c2ccc(=O)n(CC(=O)NCCc3ccccc3)n2)c(F)c1` [IIIb-9, 2-(3-(2-fluoro-4-methoxyphenyl)-6-oxopyridazin-1(6H)-yl)-N-phenethylacetamide] had an IC50 below 10 µM.

As for `COc1ccc(-c2ccc(=O)n(CC(=O)Nc3cc(OC)ccc3OC)n2)cc1` [IIIb-25, N-(2,5-dimethoxyphenyl)-2-(3-(4-methoxyphenyl)-6-oxopyridazin-1(6H)-yl)acetamide], the IC50 fell in the range of 10 to 100 µM.

With `O=C(Cn1nc(-c2ccccc2)ccc1=O)Nc1ccc(Cl)cc1Cl` [IIIc-54, N-(2,4-dichlorophenyl)-2-(6-oxo-3-phenylpyridazin-1(6H)-yl)acetamide], the IC50 was 10 to 100 µM.

On to `C[C@@H](NC(=O)Cn1nc(-c2ccc3c(c2)OCCCO3)ccc1=O)c1ccc(F)cc1` [IIIb-26, (R)-2-(3-(3,4-dihydro-2H-benzo[b][1,4]dioxepin-7-yl)-6-oxopyridazin-1(6H)-yl)-N-(1-(4-fluorophenyl)ethyl)acetamide], for which the half-maximal inhibitory concentration (IC50) lay within 10 to 100 µM.

`COc1ccc(-c2ccc(=O)n(CC(=O)NC3CCCC3)n2)cc1OC` [IIIb-45, N-cyclopentyl-2-(3-(3,4-dimethoxyphenyl)-6-oxopyridazin-1(6H)-yl)acetamide] gave an IC50 above 100 µM.

As for `COc1ccc(-c2ccc(=O)n(CC(=O)NCc3ccccc3Cl)n2)c(F)c1` [IIIa-13, N-(2-chlorobenzyl)-2-(3-(2-fluoro-4-methoxyphenyl)-6-oxopyridazin-1(6H)-yl)acetamide], the half-inhibitory concentration (IC50) was below 10 µM.

In turn, `COc1ccc(-c2ccc(=O)n(CC(=O)NC[C@@H]3CC4C=CC3C4)n2)cc1` (stereo partly drawn) [IIIb-39, N-(((2R)-bicyclo[2.2.1]hept-5-en-2-yl)methyl)-2-(3-(4-methoxyphenyl)-6-oxopyridazin-1(6H)-yl)acetamide] returned an IC50 above 100 µM.

For the molecule `O=C(Cn1nc(-c2ccc(F)cc2)ccc1=O)NCCc1c[nH]c2ccccc12` [IIIc-44, N-(2-(1H-indol-3-yl)ethyl)-2-(3-(4-fluorophenyl)-6-oxopyridazin-1(6H)-yl)acetamide], the half-inhibitory concentration (IC50) was in the range of 10 to 100 µM.

With `O=C(Cn1nc(-c2ccccc2)ccc1=O)Nc1cccc2[nH]ccc12` [IIIc-50, N-(1H-indol-4-yl)-2-(6-oxo-3-phenylpyridazin-1(6H)-yl)acetamide], the half-inhibitory concentration (IC50) is 10 to 100 µM.
